In PubChem BioAssay AID1919000 (Molecular Pharmacology Branch, DTP, NCI, 2023) one finds IC50 and viability, T/C data, which are given here for six compounds.

The test system of the assay is 653999-131-R-J2-PDC complex spheroids, growth % test/control. The experiment in a line: Anticancer human tumor 653999-131-R-J2-PDC patient-derived lung adenocarcinoma cell line growth inhibition [AhR]. As to conditions: for viability, T/C: stronger effect = lower value. Summed up:
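Complex tumor spheroids co-cultured with HUVEC and human MSC stroma; AhR antagonists tested in combination with standard-of-care and investigational agents. Top concentration at or near clinical Cmax (else 10 microM), half-log dilutions; growth expressed as percent test/control.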

Where [1] appears, read: curve of first compound, second compound 0.1 µM.
Setting [2] is: curve of first compound, second compound 0.316 µM.
[3] abbreviates: curve of first compound, second compound 1 µM.
Setting [4] is: curve of first compound, second compound 3.16 µM.
Where [5] appears, read: curve of first compound, second compound 10 µM.
[6] abbreviates: second compound 0.1 µM, first compound 0.0316 µM.
Where [7] appears, read: second compound 0.1 µM, first compound 0.1 µM.
The mark [8] stands for this setting: second compound 0.1 µM, first compound 0.316 µM.
[9] abbreviates: second compound 0.1 µM, first compound 1 µM.
The mark [10] stands for this setting: second compound 0.1 µM, first compound 3.16 µM.
The mark [11] stands for this setting: second compound 0.1 µM, first compound 10 µM.
Where [12] appears, read: second compound 0.316 µM, first compound 0.0316 µM.
The mark [13] stands for this setting: second compound 0.316 µM, first compound 0.1 µM.
The mark [14] stands for this setting: second compound 0.316 µM, first compound 0.316 µM.
[15] abbreviates: second compound 0.316 µM, first compound 1 µM.
[16] abbreviates: second compound 0.316 µM, first compound 3.16 µM.
The mark [17] stands for this setting: second compound 0.316 µM, first compound 10 µM.
The mark [18] stands for this setting: second compound 1 µM, first compound 0.0316 µM.
Setting [19] is: second compound 1 µM, first compound 0.1 µM.
The mark [20] stands for this setting: second compound 1 µM, first compound 0.316 µM.
Where [21] appears, read: second compound 1 µM, first compound 1 µM.
The mark [22] stands for this setting: second compound 1 µM, first compound 3.16 µM.
Where [23] appears, read: second compound 1 µM, first compound 10 µM.
[24] abbreviates: second compound 3.16 µM, first compound 0.0316 µM.
[25] abbreviates: second compound 3.16 µM, first compound 0.1 µM.
The mark [26] stands for this setting: second compound 3.16 µM, first compound 0.316 µM.
The mark [27] stands for this setting: second compound 3.16 µM, first compound 1 µM.
Setting [28] is: second compound 3.16 µM, first compound 3.16 µM.
Where [29] appears, read: second compound 3.16 µM, first compound 10 µM.
The mark [30] stands for this setting: second compound 10 µM, first compound 0.0316 µM.
The mark [31] stands for this setting: second compound 10 µM, first compound 0.1 µM.
Setting [32] is: second compound 10 µM, first compound 0.316 µM.
[33] abbreviates: second compound 10 µM, first compound 1 µM.
[34] abbreviates: second compound 10 µM, first compound 3.16 µM.
Where [35] appears, read: second compound 10 µM, first compound 10 µM.

SMILES strings stand for the structures. Several values for one entry are separate records, joined by “and”; a condition that tells them apart may be missing. Equal entries are not always repeated. Where only a bound is given, the exact number is not on record here.
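Further: spheroids exposed to agents for seven days.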
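Wherever viability, T/C is given: 100% = DMSO vehicle control viability.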

On to `O=C(C=Cn1cnc(-c2cc(C(F)(F)F)cc(C(F)(F)F)c2)n1)NNc1cnccn1` + Cc1ccccc1N=Nc1ccc(NC(=O)c2ccnn2C)c(C)c1, for which the IC50 is, setting by setting: under setting [1], 839 nM; under setting [2], 586 nM; under setting [3], 864 nM; under setting [4], 1960 nM; under setting [5], above 3000 nM. Further, the viability, T/C is, setting by setting: (second compound 0.1 µM, first compound 0.00949 µM) 106%; (second compound 0.1 µM, first compound 0.03 µM) 76.8%; (second compound 0.1 µM, first compound 0.0949 µM) 72.7%; (second compound 0.1 µM, first compound 0.3 µM) 49.5%; (second compound 0.1 µM, first compound 0.949 µM) 48.9%; (second compound 0.1 µM, first compound 3 µM) 48%. The viability, T/C runs as follows: (second compound 0.316 µM, first compound 0.00949 µM) 91.8%; (second compound 0.316 µM, first compound 0.03 µM) 93.3%; (second compound 0.316 µM, first compound 0.0949 µM) 70.5%; (second compound 0.316 µM, first compound 0.3 µM) 55.8%; (second compound 0.316 µM, first compound 0.949 µM) 45.3%; (second compound 0.316 µM, first compound 3 µM) 47.9%. Further, the viability, T/C runs as follows: (second compound 1 µM, first compound 0.00949 µM) 94.4%; (second compound 1 µM, first compound 0.03 µM) 91.1%; (second compound 1 µM, first compound 0.0949 µM) 66%; (second compound 1 µM, first compound 0.3 µM) 56.9%; (second compound 1 µM, first compound 0.949 µM) 49.3%; (second compound 1 µM, first compound 3 µM) 47.4%. In addition, the viability, T/C reads like this: (second compound 3.16 µM, first compound 0.00949 µM) 105%; (second compound 3.16 µM, first compound 0.03 µM) 81.1%; (second compound 3.16 µM, first compound 0.0949 µM) 75.9%; (second compound 3.16 µM, first compound 0.3 µM) 58.4%; (second compound 3.16 µM, first compound 0.949 µM) 55.7%; (second compound 3.16 µM, first compound 3 µM) 47%. Further, the viability, T/C by setting is: (second compound 10 µM, first compound 0.00949 µM) 85.7%; (second compound 10 µM, first compound 0.03 µM) 83.8%; (second compound 10 µM, first compound 0.0949 µM) 66.7%; (second compound 10 µM, first compound 0.3 µM) 53.6%; (second compound 10 µM, first compound 0.949 µM) 52%; (second compound 10 µM, first compound 3 µM) 49%.

With `COc1cc(C2c3cc4c(cc3C(OC3OC5COC(C)OC5C(O)C3O)C3COC(=O)C23)OCO4)cc(OC)c1O` (stereo unspecified) + Cc1cncc(-c2nc(NCCc3c[nH]c4ccccc34)c3ncn(C(C)C)c3n2)c1, the IC50 by setting is: under setting [1], 841 nM; under setting [2], 732 nM; under setting [3], 1190 nM; under setting [4], 1640 nM; under setting [5], 44 nM. In addition, the viability, T/C was 92.3% under setting [6]; 94.7% under setting [7]; 58.6% under setting [8]; 51.5% under setting [9]; 37.9% under setting [10]; 28.6% under setting [11]. Moreover, the viability, T/C under setting [12] was 91%; the viability, T/C under setting [13] is 79.7%; the viability, T/C under setting [14] is 58.1%; the viability, T/C under setting [15] is 45.6%; the viability, T/C under setting [16] is 39%; the viability, T/C under setting [17] is 28.4%. Further, the viability, T/C is 93.1% under setting [18]; 84.3% under setting [19]; 71% under setting [20]; 49.3% under setting [21]; 40.9% under setting [22]; 29% under setting [23]. In addition, the viability, T/C under setting [24] is 96.4%; the viability, T/C under setting [25] was 85.6%; the viability, T/C under setting [26] is 69%; the viability, T/C under setting [27] is 54.5%; the viability, T/C under setting [28] is 44.4%; the viability, T/C under setting [29] was 31.2%. Moreover, the viability, T/C was 50.2% under setting [30]; 47.1% under setting [31]; 46.2% under setting [32]; 36.3% under setting [33]; 31.6% under setting [34]; 33.8% under setting [35].

For `O=C(C=Cc1cccc(S(=O)(=O)Nc2ccccc2)c1)NO`, the viability, T/C is, setting by setting: (compound 0.0316 µM) 91.5% and 94.1% and 91.6%; (compound 0.1 µM) 92.4% and 95.9% and 101%; (compound 0.316 µM) 82.2% and 91.9% and 96.7%; (compound 1 µM) 77% and 86.9% and 80.2%; (compound 3.16 µM) 52.3% and 62.5% and 55.9%; (compound 10 µM) 14.8% and 11.4% and 7.09%. For the same compound, the IC50 (curve of compound) was 3450 nM and 4200 nM and 3560 nM.

Regarding `CCc1c2c(nc3ccc(O)cc13)-c1cc3c(c(=O)n1C2)COC(=O)[C@]3(O)CC`, the viability, T/C runs as follows: (compound 0.000949 µM) 79% and 89.9% and 76.4%; (compound 0.003 µM) 75.3% and 80.9% and 76.6%; (compound 0.00949 µM) 54.4% and 59.1% and 45.1%; (compound 0.03 µM) 38.8% and 44.1% and 33.3%; (compound 0.0949 µM) 29.4% and 35.4% and 27.7%; (compound 0.3 µM) 20.6% and 19.6% and 16.8%. For the same compound, for the setting “curve of compound”, the IC50 is 14.6 nM and 22.1 nM and 9.27 nM.

`CC(C)c1c(-c2ccccc2)nc2c(C#N)c[nH]n2c1=O` + Cc1cncc(-c2nc(NCCc3c[nH]c4ccccc34)c3ncn(C(C)C)c3n2)c1: the IC50 runs as follows: under setting [1], above 10000 nM; under setting [2], above 10000 nM; under setting [3], above 10000 nM; under setting [4], above 10000 nM; under setting [5], above 10000 nM. Also, the viability, T/C is, setting by setting: under setting [6], 112%; under setting [7], 99.8%; under setting [8], 102%; under setting [9], 95.8%; under setting [10], 93.9%; under setting [11], 102%. Besides, the viability, T/C is, setting by setting: under setting [12], 115%; under setting [13], 114%; under setting [14], 120%; under setting [15], 104%; under setting [16], 97.7%; under setting [17], 99.2%. The viability, T/C is, setting by setting: under setting [18], 128%; under setting [19], 118%; under setting [20], 122%; under setting [21], 136%; under setting [22], 125%; under setting [23], 116%. Further, the viability, T/C is 128% under setting [24]; 117% under setting [25]; 121% under setting [26]; 115% under setting [27]; 129% under setting [28]; 120% under setting [29]. Besides, the viability, T/C reads like this: under setting [30], 63.2%; under setting [31], 58.8%; under setting [32], 62.6%; under setting [33], 63.7%; under setting [34], 62.2%; under setting [35], 63.7%.

As for `O=C(C=Cn1cnc(-c2cc(C(F)(F)F)cc(C(F)(F)F)c2)n1)NNc1cnccn1`, the viability, T/C is 104% and 94.3% and 105% (compound 0.00949 µM); 73.3% and 78.8% and 101% (compound 0.03 µM); 61.6% and 77.7% and 76.8% (compound 0.0949 µM); 49.5% and 51.9% and 57.9% (compound 0.3 µM); 40.9% and 40.5% and 50.6% (compound 0.949 µM); 40.6% and 47.6% and 43% (compound 3 µM). In addition, the IC50 (curve of compound) is 264 nM and 423 nM and 743 nM.
